Values quoted from earlier work in patent US6475530B1, “Methods and compositions for producing weight loss” (priority 2000, dated 2002).

Key:
[1] = mice; substance by itself
[2] = single dose of 300 mg. per day; healthy young adults
cyclooxygenase = details: single large dose
growth hormone = details: healthy postmenopausal women; 9 grams per day

In the case of O=C(O)c1cccnc1 [nicotinic acid], the “effect on free fatty acids” value (free fatty acids; given in the daytime) is listed as “reduces free fatty acids temporarily, but then there is a rebound effect” and the “duration of reduction in free fatty acids” value (free fatty acids; given nocturnally, constant infusion from 8:00 PM to 6 AM, without rebound effect) is listed as 24 h.

For CC(=O)Oc1ccccc1C(=O)O [aspirin, acetylsalicylic acid], the weight loss [1] is listed as “no weight loss”, the “time to gastric erosion” value [2] is listed as 5 to 7 days and the “time for prostaglandin levels to return to baseline” value (cyclooxygenase) is listed as no more than 6 h.

In the case of N=C(N)NCCC[C@H](N)C(=O)O [L-arginine], the “increase in growth hormone” value (growth hormone) is listed as 72%.
